Source: ChEMBL document CHEMBL1201862, “PubChem BioAssay data set” (2004)
Activity calls are given as the source filed them.

Tests used:
[1] = molecular target: T1, DNA repair protein RAD52 homolog (Homo sapiens, UniProt P43351); type: functional, biochemical
T1 sequence (P43351 whole entry): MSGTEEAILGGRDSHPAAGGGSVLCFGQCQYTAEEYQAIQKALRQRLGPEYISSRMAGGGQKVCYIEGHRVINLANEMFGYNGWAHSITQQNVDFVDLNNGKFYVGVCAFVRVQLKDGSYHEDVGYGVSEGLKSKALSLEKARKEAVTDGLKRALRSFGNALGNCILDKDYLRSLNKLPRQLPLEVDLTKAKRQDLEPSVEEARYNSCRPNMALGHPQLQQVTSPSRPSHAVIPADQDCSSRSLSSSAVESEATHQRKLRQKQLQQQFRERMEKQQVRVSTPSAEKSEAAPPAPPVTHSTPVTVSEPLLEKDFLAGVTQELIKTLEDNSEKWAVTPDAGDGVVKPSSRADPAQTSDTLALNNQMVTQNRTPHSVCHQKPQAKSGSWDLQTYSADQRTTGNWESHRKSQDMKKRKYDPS

[2] = A Cell Based Secondary Assay To Explore Cytotoxicity of Compounds that Sensitize Mycobacterium Tuberculosis to Beta-Lactam Antibiotics.; type: functional
[3] = molecular target: Nuclear receptor subfamily 5 group A member 2 (Homo sapiens, UniProt O00482); type: functional, cell-based;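 also: HEK293T cells transfected with LRH-1 and a StAR promoter luciferase reporter; potency for inhibitors that lower LRH-1 driven reporter light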
Sequence of Nuclear receptor subfamily 5 group A member 2 (O00482 whole entry): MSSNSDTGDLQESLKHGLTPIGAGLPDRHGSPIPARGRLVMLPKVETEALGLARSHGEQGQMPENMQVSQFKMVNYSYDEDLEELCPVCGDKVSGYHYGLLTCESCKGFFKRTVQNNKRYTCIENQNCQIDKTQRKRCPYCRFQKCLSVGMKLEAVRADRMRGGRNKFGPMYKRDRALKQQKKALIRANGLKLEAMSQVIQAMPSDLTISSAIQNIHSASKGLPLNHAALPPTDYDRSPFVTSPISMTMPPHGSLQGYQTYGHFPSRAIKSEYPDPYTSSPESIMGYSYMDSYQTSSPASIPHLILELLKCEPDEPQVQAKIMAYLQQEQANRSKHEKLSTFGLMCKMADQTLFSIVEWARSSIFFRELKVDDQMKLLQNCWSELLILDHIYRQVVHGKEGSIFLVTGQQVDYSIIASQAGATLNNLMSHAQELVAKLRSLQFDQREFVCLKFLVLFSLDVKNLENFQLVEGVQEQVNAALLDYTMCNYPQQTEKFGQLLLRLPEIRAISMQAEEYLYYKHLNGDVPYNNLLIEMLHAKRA

Steroidogenic factor 1 = Steroidogenic factor 1 (Homo sapiens, UniProt Q13285); experiment: Counterscreen for inverse agonists of the liver receptor homolog-1 (LRH-1; NR5A2): Luminescence-based cell-based high throughput dose response assay to identify inverse agonists of the Steroidogenic Factor 1 Nuclear Receptor (SF1; NR5A1).; type: functional
Sequence of Steroidogenic factor 1 (Q13285 whole entry): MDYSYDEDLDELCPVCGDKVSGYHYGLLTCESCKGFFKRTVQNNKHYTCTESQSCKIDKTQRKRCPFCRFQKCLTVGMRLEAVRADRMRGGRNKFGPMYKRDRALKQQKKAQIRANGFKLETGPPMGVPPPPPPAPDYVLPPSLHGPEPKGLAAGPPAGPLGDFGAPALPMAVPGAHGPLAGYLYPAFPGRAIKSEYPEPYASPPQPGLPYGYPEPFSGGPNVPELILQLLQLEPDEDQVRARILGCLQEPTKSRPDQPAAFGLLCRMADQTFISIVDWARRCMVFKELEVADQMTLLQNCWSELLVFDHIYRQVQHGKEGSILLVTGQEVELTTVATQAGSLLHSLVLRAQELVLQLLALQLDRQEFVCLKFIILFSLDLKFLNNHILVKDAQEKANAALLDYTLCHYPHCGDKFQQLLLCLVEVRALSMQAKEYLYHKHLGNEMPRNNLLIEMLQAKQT

[4] = StAR promoter reporter inhibition counter-screen, dose response, counter-screen for LRH-1 inverse agonist project, cell-based, luminescence, luciferase reporter (AID 651969); type: functional
Paired box protein Pax-8 = Paired box protein Pax-8 (Homo sapiens, UniProt Q06710); experiment: inhibitors of PAX8-driven TPO luciferase reporter, dose response, RMG-I cells, cherry-pick (AID 687027); type: functional, cell-based;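 also: luciferase reporter driven by Pax8 target thyroperoxidase promoter measured by SteadyGlo luminescence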
Sequence of Paired box protein Pax-8 (Q06710 whole entry): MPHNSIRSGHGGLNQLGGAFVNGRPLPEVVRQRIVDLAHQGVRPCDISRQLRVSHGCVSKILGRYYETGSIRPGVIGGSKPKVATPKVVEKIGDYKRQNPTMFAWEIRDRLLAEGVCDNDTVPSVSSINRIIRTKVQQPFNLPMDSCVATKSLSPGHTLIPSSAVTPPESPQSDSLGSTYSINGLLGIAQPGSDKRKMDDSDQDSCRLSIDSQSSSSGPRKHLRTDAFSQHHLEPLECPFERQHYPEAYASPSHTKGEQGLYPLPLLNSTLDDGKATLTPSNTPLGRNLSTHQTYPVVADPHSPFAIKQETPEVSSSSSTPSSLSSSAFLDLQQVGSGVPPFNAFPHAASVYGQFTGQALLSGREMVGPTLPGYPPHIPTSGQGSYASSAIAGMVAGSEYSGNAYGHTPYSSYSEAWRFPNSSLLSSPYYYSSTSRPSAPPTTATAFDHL

[5] = molecular target: Heat shock protein HSP 90-alpha (Homo sapiens, UniProt P07900); type: functional, organism-based
[6] = HeLa cell cytotoxicity, dose response, cytotoxicity control for MgcRacGAP inhibitor project (AID 624300); type: functional
[7] = molecular target: T2, Rac GTPase-activating protein 1 (Homo sapiens, UniProt Q9H0H5); experiment: MgcRacGAP GTPase-activating activity inhibitors, confirmation, biochemical, ADP Hunter fluorescence, primary and confirmatory (AID 624330); type: functional
T2 sequence (Q9H0H5 whole entry): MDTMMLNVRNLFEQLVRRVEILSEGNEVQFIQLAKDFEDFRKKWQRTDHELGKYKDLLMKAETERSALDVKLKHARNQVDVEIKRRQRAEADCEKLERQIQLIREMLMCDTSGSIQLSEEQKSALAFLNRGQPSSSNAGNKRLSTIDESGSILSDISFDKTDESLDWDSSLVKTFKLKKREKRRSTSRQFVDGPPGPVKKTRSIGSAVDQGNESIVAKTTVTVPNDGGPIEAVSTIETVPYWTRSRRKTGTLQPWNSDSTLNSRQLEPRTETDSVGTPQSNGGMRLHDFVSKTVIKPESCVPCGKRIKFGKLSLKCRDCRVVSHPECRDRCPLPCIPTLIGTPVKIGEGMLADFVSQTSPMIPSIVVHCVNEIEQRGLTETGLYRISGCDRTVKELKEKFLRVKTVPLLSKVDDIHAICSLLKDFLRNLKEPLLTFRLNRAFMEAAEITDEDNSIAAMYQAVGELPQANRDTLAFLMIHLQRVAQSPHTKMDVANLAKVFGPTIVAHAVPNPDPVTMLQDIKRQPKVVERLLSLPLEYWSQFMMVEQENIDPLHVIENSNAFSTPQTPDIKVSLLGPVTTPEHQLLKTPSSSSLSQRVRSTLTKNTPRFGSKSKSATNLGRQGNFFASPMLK

[8] = molecular target: Luciferin 4-monooxygenase (Photinus pyralis, UniProt P08659); experiment: firefly luciferase enzyme inhibitors, dose response, biochemical, luminescence (AID 1891)
Sequence of Luciferin 4-monooxygenase (P08659 whole entry): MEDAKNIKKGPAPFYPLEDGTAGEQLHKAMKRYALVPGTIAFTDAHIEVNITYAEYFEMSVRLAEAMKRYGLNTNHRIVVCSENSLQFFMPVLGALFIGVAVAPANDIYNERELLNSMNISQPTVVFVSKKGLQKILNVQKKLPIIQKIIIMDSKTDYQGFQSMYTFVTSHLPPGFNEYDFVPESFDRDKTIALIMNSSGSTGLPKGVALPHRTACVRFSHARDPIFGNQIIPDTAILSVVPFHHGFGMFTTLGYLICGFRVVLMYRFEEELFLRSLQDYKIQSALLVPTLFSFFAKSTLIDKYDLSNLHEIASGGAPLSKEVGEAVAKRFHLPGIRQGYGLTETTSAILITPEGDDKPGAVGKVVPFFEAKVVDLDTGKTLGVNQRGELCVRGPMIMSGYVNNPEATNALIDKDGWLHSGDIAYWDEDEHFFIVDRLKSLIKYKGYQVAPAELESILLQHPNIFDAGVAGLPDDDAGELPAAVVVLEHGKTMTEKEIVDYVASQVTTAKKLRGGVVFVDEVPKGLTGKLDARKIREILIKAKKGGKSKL

[9] = Luminescence Cell-Based Dose Confirmation HTS to Identify Inhibitors of Platelet Dense Granule Release. [Related pubchem assays: 1663 (Primary HTS), 1678 (Summary of Project)]; type: functional
[10] = NIH-3T3 fibroblast cytotoxicity, dose response, cytotoxicity control, cell-based, fluorescence, Alamar Blue, secondary assay (AID 2327); type: functional;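 also: NIH-3T3 mouse fibroblasts cultured with fluconazole at 8 µg/mL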
[11] = molecular target: T3, Ubiquitin-conjugating enzyme E2 N (Homo sapiens, UniProt P61088); type: functional;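 also: Dose-response confirmation in a TR-FRET assay detecting UBC13-driven polyubiquitin chain formation, inhibition measured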
T3 sequence (P61088 whole entry): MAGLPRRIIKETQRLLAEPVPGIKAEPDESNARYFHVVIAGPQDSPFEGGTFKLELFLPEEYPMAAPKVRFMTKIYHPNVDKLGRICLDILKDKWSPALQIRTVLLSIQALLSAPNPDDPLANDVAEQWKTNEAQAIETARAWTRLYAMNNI

[12] = molecular target: T4, Replicative DNA helicase DnaB (Mycobacterium tuberculosis, UniProt P9WMR3); experiment: DnaB intein splicing inhibitors, dose response, biochemical, cell-free fluorescence (AID 449749); type: functional
T4 sequence (P9WMR3 whole entry): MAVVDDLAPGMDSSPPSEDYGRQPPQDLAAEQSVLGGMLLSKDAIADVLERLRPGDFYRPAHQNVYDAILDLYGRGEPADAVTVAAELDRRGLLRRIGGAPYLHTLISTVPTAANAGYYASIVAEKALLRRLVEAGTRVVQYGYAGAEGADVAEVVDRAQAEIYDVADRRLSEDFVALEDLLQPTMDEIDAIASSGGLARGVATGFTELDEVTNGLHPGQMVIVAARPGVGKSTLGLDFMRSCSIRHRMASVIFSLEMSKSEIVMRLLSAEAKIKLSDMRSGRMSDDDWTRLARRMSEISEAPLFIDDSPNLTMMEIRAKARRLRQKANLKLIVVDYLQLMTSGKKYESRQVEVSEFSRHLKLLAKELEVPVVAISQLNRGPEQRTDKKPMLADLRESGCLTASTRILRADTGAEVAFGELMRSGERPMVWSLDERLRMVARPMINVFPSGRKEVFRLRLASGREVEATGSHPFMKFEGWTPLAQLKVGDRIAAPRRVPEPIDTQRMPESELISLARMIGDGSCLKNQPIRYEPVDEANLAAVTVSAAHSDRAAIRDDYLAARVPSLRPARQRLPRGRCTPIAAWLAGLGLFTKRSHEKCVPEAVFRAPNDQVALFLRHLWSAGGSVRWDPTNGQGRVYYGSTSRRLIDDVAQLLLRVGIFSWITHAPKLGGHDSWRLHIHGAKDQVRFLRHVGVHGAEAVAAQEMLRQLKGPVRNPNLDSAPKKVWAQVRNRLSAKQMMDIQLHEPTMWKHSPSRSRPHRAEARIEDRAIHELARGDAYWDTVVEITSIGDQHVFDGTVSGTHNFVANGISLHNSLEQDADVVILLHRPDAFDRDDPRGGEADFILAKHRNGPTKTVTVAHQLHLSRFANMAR

[13] = molecular target: T5, Microphthalmia-associated transcription factor (Homo sapiens, UniProt O75030); experiment: TRPM1 promoter luciferase signal decrease, dose response, MITF inhibitor project, cell-based, SK-MEL-5, cherry-picked, set 3 (AID 493073); type: functional
T5 sequence (O75030 whole entry): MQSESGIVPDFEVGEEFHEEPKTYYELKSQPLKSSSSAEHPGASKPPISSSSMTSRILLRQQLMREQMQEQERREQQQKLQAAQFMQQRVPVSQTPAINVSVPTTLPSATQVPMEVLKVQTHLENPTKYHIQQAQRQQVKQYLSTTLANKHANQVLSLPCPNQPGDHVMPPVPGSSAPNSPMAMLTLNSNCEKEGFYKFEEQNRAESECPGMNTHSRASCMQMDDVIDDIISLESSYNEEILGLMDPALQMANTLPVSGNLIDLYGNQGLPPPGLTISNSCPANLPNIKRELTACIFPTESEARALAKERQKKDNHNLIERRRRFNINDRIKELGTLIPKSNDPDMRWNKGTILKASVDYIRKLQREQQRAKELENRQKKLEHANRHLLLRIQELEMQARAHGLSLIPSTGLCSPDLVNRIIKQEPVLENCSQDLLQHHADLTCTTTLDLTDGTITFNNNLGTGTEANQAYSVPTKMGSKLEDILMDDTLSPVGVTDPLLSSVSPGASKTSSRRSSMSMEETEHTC

Large T antigen = Large T antigen (Simian virus 40, UniProt P03070); type: functional, Betapolyomavirus macacae;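 also: Confirmatory-stage PubChem screen for compounds that inhibit SV40 T antigen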
Sequence of Large T antigen (P03070 whole entry): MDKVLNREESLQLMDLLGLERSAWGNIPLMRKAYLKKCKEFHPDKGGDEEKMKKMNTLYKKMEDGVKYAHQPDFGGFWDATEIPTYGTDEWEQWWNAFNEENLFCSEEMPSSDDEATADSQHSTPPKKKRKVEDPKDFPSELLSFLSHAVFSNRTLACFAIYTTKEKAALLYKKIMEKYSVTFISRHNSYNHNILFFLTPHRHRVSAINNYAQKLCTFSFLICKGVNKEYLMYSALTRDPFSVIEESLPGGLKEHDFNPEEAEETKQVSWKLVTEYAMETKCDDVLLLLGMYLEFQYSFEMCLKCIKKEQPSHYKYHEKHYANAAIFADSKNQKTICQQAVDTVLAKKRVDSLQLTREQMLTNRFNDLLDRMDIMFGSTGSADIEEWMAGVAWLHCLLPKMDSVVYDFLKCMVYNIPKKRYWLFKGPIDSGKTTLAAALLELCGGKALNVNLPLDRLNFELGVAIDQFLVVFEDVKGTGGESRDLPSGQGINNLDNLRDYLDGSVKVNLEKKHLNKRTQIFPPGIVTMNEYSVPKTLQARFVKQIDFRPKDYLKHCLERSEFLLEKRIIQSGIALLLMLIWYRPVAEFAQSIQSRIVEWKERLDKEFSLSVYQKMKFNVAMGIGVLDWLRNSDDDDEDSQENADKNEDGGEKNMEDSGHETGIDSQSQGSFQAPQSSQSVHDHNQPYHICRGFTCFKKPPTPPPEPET

Nonstructural protein 1 = Nonstructural protein 1 (Influenza A virus, UniProt Q194T2); type: functional, Influenza A virus (A/California/07/2009(H1N1))
Sequence of Nonstructural protein 1 (Q194T2 whole entry): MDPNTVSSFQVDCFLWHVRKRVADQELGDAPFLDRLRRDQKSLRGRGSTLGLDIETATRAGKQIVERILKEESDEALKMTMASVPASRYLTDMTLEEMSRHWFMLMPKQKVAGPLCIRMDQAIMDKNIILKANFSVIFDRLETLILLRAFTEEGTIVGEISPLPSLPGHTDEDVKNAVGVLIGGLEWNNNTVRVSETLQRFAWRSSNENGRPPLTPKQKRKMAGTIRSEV

Protein RecA = molecular target: T6, Protein RecA (Mycobacterium tuberculosis, UniProt P9WHJ3); experiment: Fluorescence Cell-Free Homogeneous Dose Retest to Identify Inhibitors of RecA-Intein Splicing Activity. [Related pubchem assays (depositor defined):AID2097, AID2223, AID489010, AID492950]; type: functional
T6 sequence (P9WHJ3 whole entry): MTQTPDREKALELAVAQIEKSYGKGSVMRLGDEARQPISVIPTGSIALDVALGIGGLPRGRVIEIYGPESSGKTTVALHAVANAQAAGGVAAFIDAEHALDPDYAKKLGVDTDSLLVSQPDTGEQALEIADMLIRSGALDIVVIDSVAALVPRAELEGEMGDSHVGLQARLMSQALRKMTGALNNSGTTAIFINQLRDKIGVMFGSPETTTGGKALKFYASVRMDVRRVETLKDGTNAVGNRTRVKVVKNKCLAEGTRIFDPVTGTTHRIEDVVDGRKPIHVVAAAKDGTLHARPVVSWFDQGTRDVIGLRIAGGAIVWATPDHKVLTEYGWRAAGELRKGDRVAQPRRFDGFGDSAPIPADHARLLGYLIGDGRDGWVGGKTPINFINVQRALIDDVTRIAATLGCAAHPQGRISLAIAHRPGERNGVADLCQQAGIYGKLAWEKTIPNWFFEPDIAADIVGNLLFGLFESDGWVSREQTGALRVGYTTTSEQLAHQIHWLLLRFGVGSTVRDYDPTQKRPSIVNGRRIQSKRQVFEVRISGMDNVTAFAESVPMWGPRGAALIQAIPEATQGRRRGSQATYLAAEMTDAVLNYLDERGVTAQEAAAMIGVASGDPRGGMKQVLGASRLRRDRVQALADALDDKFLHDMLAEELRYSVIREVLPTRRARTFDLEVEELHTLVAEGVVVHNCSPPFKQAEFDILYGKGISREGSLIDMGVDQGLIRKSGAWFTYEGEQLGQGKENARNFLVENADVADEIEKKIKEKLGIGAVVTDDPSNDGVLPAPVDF

SMILES	AC50 [1]	IC50 [3]	IC50 (Steroidogenic factor 1)	IC50 [4]	also measured
COc1ccc2c(c1O)-c1cccc3c1[C@@H](C2)N(C)CC3	10.7 µM (active)				
O=C(N/N=C/c1cc([N+](=O)[O-])ccc1O)C1CC1					CC50 [2]: > 40 µM (active)
N#Cc1cc([N+](=O)[O-])ccc1NC(=O)COC(=O)C1CCC(=O)N1 (stereo not given)		6.37 µM (active)	4.87 µM (active)	35.9 µM (inactive)	
CN(C)CCOc1ccc2c(c1)C(=O)C(=Cc1ncc([N+](=O)[O-])n1C)C2	7.08 µM (active)				AC50 (Paired box protein Pax-8): 1.89 µM (active)
COc1ccc(S(=O)(=O)N2CCN(CC(=O)Nc3ccc(C)c(F)c3)CC2)cc1		6.16 µM (active)	3.05 µM (active)	35.9 µM (inactive)	
COCCn1c(C)cc(/C=C(\C#N)C(=O)OCC(=O)Nc2ccc(S(N)(=O)=O)cc2)c1C		35.9 µM (inactive)	3.99 µM (active)	35.9 µM (inactive)	
CCOc1ccc(NC(=O)CSc2nnc(C(C)C)n2CC)cc1		35.9 µM (inactive)	6.03 µM (active)	35.9 µM (inactive)	
COc1cc2nc(N(CCCN(C)C)C(=O)c3ccc(C(=O)c4ccccc4)cc3)sc2cc1OC	15.8 µM (active)				
CCN(CC)CC(O)Cn1c(C)c(-c2ccccc2)c2cc([N+](=O)[O-])ccc21 (stereo not given)	8.3 µM (active)				
O=C(Nc1cccc(Cl)c1N1CCOCC1)c1ccc([N+](=O)[O-])o1					CC50 [2]: > 40 µM (active)
COc1ccc(C2(C)NC(=O)N(CC(=O)Nc3ccc(C)cc3Br)C2=O)cc1OC (stereo not given)		35.9 µM (inactive)	11.7 µM (inactive)	35.9 µM (inactive)	
CCN1/C(=C/c2ccc3cc(C)ccc3[n+]2CC)Sc2cc(C)ccc21					AC50 [5]: 3.75 µM (active); CC50 [6]: 23.1 µM (active); IC50 [7]: 80.4 µM (active)
CCCN1C(=O)/C(=C/c2cc(C)n(C)c2C)S/C1=N/c1ccc(OCC)cc1					CC50 [6]: 100 µM (active)
CCOc1ccccc1CN(CCc1ccc2c(c1)OCO2)Cc1ccccn1					EC50 [8]: > 112 µM (not active); EC50 [9]: > 112 µM (not active); CC50 [6]: 100 µM (active); IC50 [7]: 172 µM (active)
NC1=NC[C@H](Cc2ccc(O)cc2)N1CCC12CC3CC(CC(C3)C1)C2	18.5 µM (active)				EC50 [10]: > 160 µM (inactive); IC50 [11]: > 20 µM (inactive)
COC1=C(Nc2ccc(O)cc2)C(=O)c2ccccc2C1=O					AC50 [12]: > 380 µM (inactive); AC50 [13]: 5.14 µM (active); IC50 (Large T antigen): 9.88 µM (active); IC50 (Nonstructural protein 1): 24.7 µM (active); EC50 (Protein RecA): 1.16 µM (active); CC50 [6]: 56.8 µM (active); IC50 [7]: 24.4 µM (active)
